In the METLIN SMRT retention time set (Domingo-Almenara et al. 2019):

experiment: gradient 5% acetonitrile 3 min, to 50% in 2 min, to 85% in 15 min, held 3 min, 100 µL/min; details: column: Zorbax Extend-C18 2.1 x 50 mm; eluents: water / acetonitrile, 0.1% formic acid
Procedure, shortened: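 Pure standards were analyzed in mixtures of ~100 molecules using HPLC coupled to a quadrupole time-of-flight mass spectrometer, in both positive and negative ionization mode. Separation used a Zorbax Extend-C18 column (2.1 × 50 mm, 1.8 μm) at 100 μL/min, with water and acetonitrile each containing 0.1% formic acid. Dead and dwell volumes were 40 μL and 900 μL, and data were collected over 3 months. Retention time was read from computationally picked adduct peaks, each inspected manually.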

For `COc1ccc(/C=C2\CCc3ccccc3C2=O)cc1OC`, which RP-LC retention time is on record?
The RP-LC retention time was 994 s.

Which RP-LC retention time does the source give for `Cc1ccccc1S(=O)(=O)N1CCC2(CC1)CC(OCc1ccccc1)CCO2` (centres undefined) here?
The RP-LC retention time was 1210 s.

For `Cc1ccc(CNC(=O)c2ccc3c(c2)nc2n3CCN(C(C)C)C2=O)cc1C`, which RP-LC retention time is on record?
Its RP-LC retention time is 767 s.

Which RP-LC retention time does the source give for `O=C(Nc1cccc(F)c1)N1CCC(N2CCN(Cc3ccccc3)C2=O)CC1` here?
The RP-LC retention time was 827 s.

Which RP-LC retention time does the source give for `COc1ccc(S(=O)(=O)Cc2nc(-c3ccc(Br)cc3)no2)cc1` here?
The RP-LC retention time was 1040 s.

Which RP-LC retention time does the source give for `COc1ccc(S(=O)(=O)N2CCC3(CC2)CC(C)(O)CCO3)cc1` (centres undefined) here?
Its RP-LC retention time is 752 s.

Which RP-LC retention time does the source give for `O=C(Cn1cccn1)N1CCCC(c2nnc(-c3ccccc3F)s2)C1` (centres undefined) here?
The RP-LC retention time was 690 s.

With `CC(C)CNC(=O)CCn1c(=O)c2ccccc2n2c(=O)n(Cc3ccccc3)nc12` as the compound, how does the RP-LC retention time read?
The RP-LC retention time was 882 s.

With `O=C(NCC1CC(=O)N(c2ccc3c(c2)OCO3)C1)C1CC1` (centres undefined) as the compound, how does the RP-LC retention time read?
The RP-LC retention time was 606 s.

For `c1ccc(Cn2cnnc2C2CCCN(Cc3cccs3)C2)cc1` (centres undefined), which RP-LC retention time is on record?
The RP-LC retention time was 592 s.

Which RP-LC retention time does the source give for `CCn1cc(S(=O)(=O)Nc2cccc(C)c2C)c2cccnc21` here?
The RP-LC retention time was 868 s.

With `O=C(NCc1ccc2c(c1)OCO2)C(=O)NCC1CCN(S(=O)(=O)C2CC2)CC1` as the compound, how does the RP-LC retention time read?
The RP-LC retention time was 711 s.

For `CCn1cccc1-c1nc(C)c(C(=O)NCCc2ccc(OC)c(OC)c2)s1`, which RP-LC retention time is on record?
Its RP-LC retention time is 998 s.

With `Cc1ccc(-c2nc3ccc(Cl)cn3c2Nc2ccc3c(c2)OCCO3)cc1` as the compound, how does the RP-LC retention time read?
The RP-LC retention time was 779 s.

Which RP-LC retention time does the source give for `CCOC(=O)c1cnc(N2CCN(c3ccccc3F)CC2)[nH]c1=O` here?
The RP-LC retention time was 908 s.

Which RP-LC retention time does the source give for `COC(=O)c1ccc(NC(=O)CC(C)S(=O)(=O)c2ccc3c(c2)NC(=O)CCS3)cc1` (centres undefined) here?
Its RP-LC retention time is 740 s.

Which RP-LC retention time does the source give for `Cc1cc(C(=O)Nc2nc(-c3ccc(C)c(C)c3)c(C)s2)no1` here?
The RP-LC retention time was 1120 s.

For `Cc1cc(=O)n(CC(=O)Nc2ccc(Br)cc2)c(N2CCOCC2)n1`, which RP-LC retention time is on record?
The RP-LC retention time was 712 s.

For `Cc1nc(-c2csc(S(=O)(=O)N3CCCC(C(=O)N4CCc5ccccc54)C3)c2)no1` (centres undefined), which RP-LC retention time is on record?
The RP-LC retention time was 1020 s.

For `O=C(c1ccn[nH]1)N1CCCC(Cn2c(C3CC3)nc3cccnc32)C1` (centres undefined), which RP-LC retention time is on record?
The RP-LC retention time was 578 s.

Which RP-LC retention time does the source give for `CCCN1CCN(C(=O)c2cnn(-c3cc(-c4nc(C(C)(C)C)no4)ccn3)c2C)CC1` here?
Its RP-LC retention time is 715 s.

For `O=S(=O)(c1ccc2nc(N3CCN(c4ccccn4)CC3)ccc2c1)N1CCCCC1`, which RP-LC retention time is on record?
The RP-LC retention time was 649 s.

For `CSc1cccc(NC(=O)Cn2c(=O)c(CCC(=O)NCC(C)C)nc3ccccc32)c1`, which RP-LC retention time is on record?
The RP-LC retention time was 846 s.

Which RP-LC retention time does the source give for `COC1CCC12CCN(Cc1cccc(F)c1)CC2` (centres undefined) here?
The RP-LC retention time was 637 s.

Which RP-LC retention time does the source give for `O=C1CN(S(=O)(=O)c2ccc([N+](=O)[O-])cc2)c2ccccc2N1` here?
Its RP-LC retention time is 738 s.

With `O=C(Cn1c(=O)oc2ccccc21)N1CCCc2ccccc21` as the compound, how does the RP-LC retention time read?
The RP-LC retention time was 866 s.

For `Cc1ccc2[nH]c(=O)c(CCC(=O)NCCCN3CCc4ccccc4C3)cc2c1`, which RP-LC retention time is on record?
Its RP-LC retention time is 629 s.

With `CCn1cc2c3c(cccc31)CN(C(=O)Nc1cc(C)cc(C)c1)CC2` as the compound, how does the RP-LC retention time read?
The RP-LC retention time was 1070 s.

Which RP-LC retention time does the source give for `COCCn1c(CCCC(=O)Nc2ccc(Cl)cc2)nc2cccnc21` here?
The RP-LC retention time was 693 s.

For `CCCCN1CCN(C(=O)C2CC(=O)N(c3ccc4c(c3)CCN4C(=O)C3CC3)C2)CC1` (centres undefined), which RP-LC retention time is on record?
The RP-LC retention time was 599 s.

With `Cc1cc(NS(=O)(=O)c2ccc(Nc3nc(-c4ccc(C(C)C)cc4)cs3)cc2)no1` as the compound, how does the RP-LC retention time read?
Its RP-LC retention time is 1160 s.

For `Cc1ccc2c(c1)N(S(C)(=O)=O)CCC(C(=O)Nc1cccc(Cl)c1)O2` (centres undefined), which RP-LC retention time is on record?
The RP-LC retention time was 1020 s.

With `COc1ccc(CC(=O)NC(C)C(=O)Nc2nc3ccccc3[nH]2)c(Cl)c1` (centres undefined) as the compound, how does the RP-LC retention time read?
Its RP-LC retention time is 676 s.

Which RP-LC retention time does the source give for `C=CCn1nc2ccc(S(=O)(=O)N3CCSCC3)cn2c1=O` here?
The RP-LC retention time was 744 s.

With `O=C(N1CCC(Cc2nc(-c3ccc(F)cc3)no2)CC1)C1(c2ccccc2)CC1` as the compound, how does the RP-LC retention time read?
Its RP-LC retention time is 1020 s.

With `O=C(CCCCCCNC(=O)c1cnc(N(c2ccccc2)c2ccccc2)nc1)NO` as the compound, how does the RP-LC retention time read?
The RP-LC retention time was 771 s.

Which RP-LC retention time does the source give for `COCCCNC(=O)N1CCN(c2nnc(C)c3c(C)n(-c4ccc(C)cc4)nc23)CC1` here?
Its RP-LC retention time is 643 s.

With `CCOC(=O)C1CCN(c2cc3c(cc2NC(=O)NC(C)C)n(C)c(=O)n3C)CC1` as the compound, how does the RP-LC retention time read?
The RP-LC retention time was 713 s.

For `O=C(Cc1ccc(F)cc1)NC(c1ccccc1)c1nnc(N2CCCC2)o1` (centres undefined), which RP-LC retention time is on record?
Its RP-LC retention time is 780 s.

With `CC(=O)N1CCCc2cc(S(=O)(=O)N3CCC(C(=O)N4CCN(C)CC4)CC3)ccc21` as the compound, how does the RP-LC retention time read?
Its RP-LC retention time is 624 s.

Which RP-LC retention time does the source give for `Cc1nc(OCC(=O)NCc2ccc(N(C)C)cc2)c2c(C)c(C)oc2n1` here?
The RP-LC retention time was 653 s.

With `Cc1nc2cc(N3CC(C(=O)Nc4ccc(Cl)cc4C)CC3=O)ccc2o1` (centres undefined) as the compound, how does the RP-LC retention time read?
Its RP-LC retention time is 781 s.

Which RP-LC retention time does the source give for `Cc1cc(F)ccc1N1C(=O)CN(S(C)(=O)=O)CC1(C)C(=O)NCc1ccccc1` (centres undefined) here?
The RP-LC retention time was 804 s.

For `COc1ccc(-c2nc(Cn3ccn4nc(-c5ccc6c(c5)OCO6)cc4c3=O)c(C)o2)cc1`, which RP-LC retention time is on record?
The RP-LC retention time was 1100 s.
